Data as given in ChEMBL document CHEMBL1221208, “ATP-competitive inhibitors of the mitotic kinesin KSP that function via an allosteric mechanism” (Nat Chem Biol, 2007).
Substitutions are numbered along the chain they refer to. Activity calls are given as the source filed them. The calls are words filed in the database; no cut-off is given here.

Legend:
[1] = biological target: Kinesin-like protein KIF11 (Homo sapiens, UniProt P52732, D130V); test: Inhibition of human KSP D130V mutant using varying ATP levels in presence of saturating levels of microtubule by Lineweaver-Burke plot
[2] = biological target: Kinesin-like protein KIF11 (Homo sapiens, UniProt P52732, A133D); test: Inhibition of human KSP A133D mutant using varying ATP levels in presence of saturating levels of microtubule by Lineweaver-Burke plot
[3] = biological target: T1, Kinesin-like protein KIF11 (Homo sapiens) (UniProt P52732); test: Competitive inhibition of human wild type Eg5 with respect to ATP using varying ATP levels in presence of saturating levels of microtubule by Lineweaver-Burke plot
T1 sequence (whole entry): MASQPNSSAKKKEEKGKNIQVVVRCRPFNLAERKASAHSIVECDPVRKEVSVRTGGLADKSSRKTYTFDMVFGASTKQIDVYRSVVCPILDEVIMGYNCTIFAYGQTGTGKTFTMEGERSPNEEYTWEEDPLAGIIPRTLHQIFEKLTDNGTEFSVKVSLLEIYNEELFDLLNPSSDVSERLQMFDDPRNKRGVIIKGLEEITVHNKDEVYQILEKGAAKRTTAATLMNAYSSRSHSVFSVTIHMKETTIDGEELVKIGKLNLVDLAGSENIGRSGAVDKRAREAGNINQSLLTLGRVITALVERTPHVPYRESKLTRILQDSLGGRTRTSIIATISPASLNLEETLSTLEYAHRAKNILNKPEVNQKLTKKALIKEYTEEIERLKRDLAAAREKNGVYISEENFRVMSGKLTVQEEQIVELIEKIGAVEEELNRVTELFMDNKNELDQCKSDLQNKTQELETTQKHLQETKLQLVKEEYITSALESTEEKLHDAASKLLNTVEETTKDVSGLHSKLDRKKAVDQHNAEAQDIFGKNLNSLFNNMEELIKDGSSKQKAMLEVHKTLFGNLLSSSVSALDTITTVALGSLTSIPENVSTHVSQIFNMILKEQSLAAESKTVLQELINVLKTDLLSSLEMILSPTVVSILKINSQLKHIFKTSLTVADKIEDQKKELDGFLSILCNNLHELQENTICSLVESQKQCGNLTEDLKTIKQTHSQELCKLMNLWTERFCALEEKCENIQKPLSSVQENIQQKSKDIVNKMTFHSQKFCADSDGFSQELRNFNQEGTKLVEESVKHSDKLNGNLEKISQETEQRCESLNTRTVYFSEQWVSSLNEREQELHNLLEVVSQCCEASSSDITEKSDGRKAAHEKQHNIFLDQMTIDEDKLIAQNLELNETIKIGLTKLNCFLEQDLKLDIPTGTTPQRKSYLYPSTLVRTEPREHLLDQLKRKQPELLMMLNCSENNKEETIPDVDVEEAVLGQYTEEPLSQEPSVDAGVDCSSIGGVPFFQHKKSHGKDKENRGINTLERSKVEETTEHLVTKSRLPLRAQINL

[4] = tested on: T2, Kinesin-like protein KIF11 (Homo sapiens), P52732 [A133D]; test: Competitive inhibition of human KSP A133D mutant with respect to ATP using varying ATP levels in presence of saturating levels of microtubule by Lineweaver-Burke plot
T2 sequence (whole entry): T1 sequence (whole entry) with A133D

[5] = biological target: T1, Kinesin-like protein KIF11 (Homo sapiens); test: Uncompetitive inhibition of human wild type Eg5 with respect to microtubule using varying ATP levels in presence of saturating levels of microtubule by Lineweaver-Burke plot
[6] = tested on: T2, Kinesin-like protein KIF11 (Homo sapiens), P52732 [A133D]; test: Uncompetitive inhibition of human KSP A133D mutant with respect to microtubule using varying ATP levels in presence of saturating levels of microtubule by Lineweaver-Burke plot

Kinesin-like protein KIF11 (Homo sapiens, UniProt P52732, A133D), sequence (P52732 whole entry A133D): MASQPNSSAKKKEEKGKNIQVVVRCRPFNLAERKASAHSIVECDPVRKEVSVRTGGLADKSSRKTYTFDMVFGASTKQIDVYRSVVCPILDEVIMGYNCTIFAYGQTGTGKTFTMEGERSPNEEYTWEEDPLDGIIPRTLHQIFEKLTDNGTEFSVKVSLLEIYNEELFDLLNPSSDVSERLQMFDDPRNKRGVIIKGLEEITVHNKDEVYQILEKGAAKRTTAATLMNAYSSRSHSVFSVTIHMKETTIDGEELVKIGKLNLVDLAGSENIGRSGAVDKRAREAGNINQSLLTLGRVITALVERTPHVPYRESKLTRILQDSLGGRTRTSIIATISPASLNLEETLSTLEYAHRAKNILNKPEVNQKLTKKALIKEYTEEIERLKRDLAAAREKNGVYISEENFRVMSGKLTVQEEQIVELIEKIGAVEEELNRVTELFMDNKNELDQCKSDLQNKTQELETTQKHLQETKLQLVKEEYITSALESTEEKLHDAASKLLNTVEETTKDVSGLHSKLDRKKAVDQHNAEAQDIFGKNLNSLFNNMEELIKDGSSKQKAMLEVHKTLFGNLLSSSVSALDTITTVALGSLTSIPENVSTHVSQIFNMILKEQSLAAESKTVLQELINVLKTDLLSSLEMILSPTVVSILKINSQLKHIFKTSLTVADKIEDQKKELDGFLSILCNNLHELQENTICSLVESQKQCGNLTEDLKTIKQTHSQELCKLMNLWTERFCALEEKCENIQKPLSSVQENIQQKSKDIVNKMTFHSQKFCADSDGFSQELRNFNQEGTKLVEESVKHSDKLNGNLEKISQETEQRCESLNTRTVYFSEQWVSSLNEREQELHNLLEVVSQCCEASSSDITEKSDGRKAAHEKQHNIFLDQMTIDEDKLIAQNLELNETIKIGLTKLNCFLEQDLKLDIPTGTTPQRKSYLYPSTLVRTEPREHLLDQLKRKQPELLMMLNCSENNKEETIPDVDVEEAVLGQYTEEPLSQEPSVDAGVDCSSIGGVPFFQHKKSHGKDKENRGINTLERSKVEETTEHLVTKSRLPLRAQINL
Kinesin-like protein KIF11 (Homo sapiens, UniProt P52732, D130V), sequence (P52732 whole entry D130V): as the sequence (P52732 whole entry A133D) above, with D130V, D133A counted along it

SMILES | Ki [1] | Ki [2] | inhibition [3] | inhibition [4] | inhibition [5] | inhibition [6]
NC(=O)Nc1ccc(-c2ccc(C(F)(F)F)cc2)cc1F | 10 nM | 6.8 nM | Active | Active | Active | Active
O=C1CCc2cc(-c3ccc(C(F)(F)F)cc3)ccc2N1 | 2.2 nM | 1.4 nM | Active | Active | Active | Active
